Results published in patent publication US20170172929A1, “PHARMACEUTICAL COMPOSITION CONTAINING PREGABALIN WITH IMPROVED STABILITY AND METHOD FOR PREPARING SAME” (Yungjin Pharm. Co., Ltd., priority 2014, published 2017).
Read-outs that look alike come from different tables or passages of the source.

Assays:
[1] = cited from earlier work
[2] = severe conditions (60°C), airtight glass vial, excipient mixed 1:1
Experimental: 1 g of pregabalin and each 1 g of the excipients given in Table 14 were mixed at room temperature, and the mixture in the form of powder was air-tightened in a glass vial, and this vial was stored under severe conditions (60° C.) for 2 weeks, and then a percentage (%) of lactam related compounds (PRG-Lactam) relative to the main peak was calculated by HPLC. The analysis wavelength was 210 nm, a mixture (0.04 M ammonium phosphate ((NH4)2HPO4) buffer solution:acetonitrile:methanol=84:5:11) containing 5 mM sodium 1-octanesulfonate used as a mobile phase A, and acetonitrile was used as a mobile phase B. The mobile phase A was maintained at 100% for initial 6 minutes, and the m phase A was maintained from 100% to 70% and the mobile phase B was maintained from 0% to 30% for 6˜45 minutes, and then the mobile phase A was maintained at 70% and the mobile phase B was maintained at 0% for 45˜50 minutes. Post time was 10 minutes. A flow rate was adjusted (0.9 min/mL) so that a retention time of pregabalin was about 8 minutes. A column was a stainless steel column having an internal diameter of about 4.6 mm and a length of about 250 mm, packed with 5 μm-octadecylsilyl silica gel for liquid chromatography.

## CC(C)C[C@H](CN)CC(=O)O [Pregabalin, (S)-3-(aminomethyl)-5-methylhexanoic acid]
[1]; after administration
  Time to steady-state blood levels: 24˜48 hours
[1]; in vivo
  Average absorption time: 6 h
[1]; normal person
  Half-life: about 6 hours
[1]; oral immediate release
  Time to reach peak blood levels: ≤ 1.5 h
[2]; 0 weeks
  % of Peak area of PRG-Lactam relative to peak area of pregabalin: 0.074%
[2]; 1 week
  % of Peak area of PRG-Lactam relative to peak area of pregabalin: 0.196%
[2]; 2 weeks
  % of Peak area of PRG-Lactam relative to peak area of pregabalin: 0.329%
